Reference: patent US7521479B2 (priority 2001, dated 2009)
Where a name gives a salt, the structure may show the parent alone.

Key:
Aβ1-40 = Aβ1-40 (Homo sapiens, UniProt P05067); conditions: cited from earlier work
prions = conditions: rodents, administered prophylactically; cited from earlier work
PrP^Sc = PrP^Sc (Mus musculus, UniProt P04925); conditions: neuroblastoma cell line permanently infected with prions; cited from earlier work
[1] = in vivo; cited from earlier work
scrapie strain ME7 = type: in vivo, C57BL mice
[2] = group d, spleens, at time of death

Chain of Aβ1-40 (P05067 672-711 limits assumed): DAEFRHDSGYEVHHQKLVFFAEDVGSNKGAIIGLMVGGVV
Chain of PrP^Sc (P04925 23-230 limits assumed): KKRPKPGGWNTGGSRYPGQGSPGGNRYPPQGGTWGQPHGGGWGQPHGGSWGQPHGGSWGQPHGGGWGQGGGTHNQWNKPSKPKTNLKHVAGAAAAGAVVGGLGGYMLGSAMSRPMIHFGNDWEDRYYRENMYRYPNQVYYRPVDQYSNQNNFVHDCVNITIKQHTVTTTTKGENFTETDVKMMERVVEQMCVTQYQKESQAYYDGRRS

Structure (SMILES): Oc1ccc(O)c2ccccc12 [1,4-dihydroxynaphthalene]
- inhibition of Aβ1-40 aggregation and neurotoxicity (Aβ1-40): inhibit Aβ1-40 aggregation and neurotoxicity at comparable molar concentrations to rifampicin

Structure (SMILES): Nc1c(/N=N/c2ccc(-c3ccc(/N=N/c4cc(S(=O)(=O)O)c5ccccc5c4N)cc3)cc2)cc(S(=O)(=O)O)c2ccccc12 [Congo red]
- disease onset (prions): delay disease onset
- accumulation of PrP^Sc (PrP^Sc): reduce the accumulation of PrP^Sc

Structure (SMILES): Oc1ccc(O)cc1 [Hydroquinone]
- inhibition of Aβ1-40 aggregation and neurotoxicity (Aβ1-40): inhibit Aβ1-40 aggregation and neurotoxicity at comparable molar concentrations to rifampicin

Structure (SMILES): N=C(N)N [guanidine hydrochloride]
- side effects [1]: bone marrow depression to renal problems to cardiac arrhythmia
- PrP^Sc titers at the final endpoint versus group b (scrapie strain ME7; [2]): lower PrP^Sc titers
- infectivity at the final endpoint versus group b (scrapie strain ME7; [2]): lower infectivity
- survival (time of death) of treated infected mice (scrapie strain ME7; group d: ME7 i.p., oral treatment from 70 days post-infection, 15 then 40 mg/kg/day): live as long as the mice in group a
- PrP^Sc level with treatment from one day post inoculation (scrapie strain ME7; group f, prophylactic-like treatment): negligible or not much higher than that provided in the initial inoculum
- overall efficacy in scrapie (scrapie strain ME7; overall results): effective in the treatment of scrapie
